In US20020110808A1, “Toxicant-induced differential gene expression” (priority 2000, published 2002):

Assays:
[1] = tested on: HepG2 cells; experiment: Dot blot array expression assay; conditions: for Number of 27 unconfirmed or non-matching clones showing an expression change: two-fold threshold
Description: The quality of the PCR reactions was assessed by agarose gel electrophoresis. Human genomic DNA (Clontech) and PCR products were robotically dotted in 100 nl aliquots onto positively-charged nylon membranes using the BioDot instrument (Cartesian Technologies, Inc.). After uv-crosslinking, the membranes were rinsed in 2× SSC and allowed to air-dry. Prior to addition of labeled cDNA probes, membranes were washed in boiling 1% SDS, rinsed with 6× SSC, and incubated in 5 mL of 42° C. Microhyb solution (Research Genetics) for 2 hr. Ten minutes prior to addition of the probes, the Microhyb solution was replaced with an equal amount of fresh 42° C. Microhyb solution containing denatured human Cot-1 DNA (Gibco BRL) and poly(dA) primer (Research Genetics) (both at final concentrations of 1 ng/μl).
For each reverse transcription reaction, 2 μg of mRNA was incubated with oligo(dT) primer (200 ng/μl) at 70° C. for 10 minutes. Tubes were chilled and spun briefly. The following reagents (with the final concentrations in parentheses) were added: first strand buffer (1×), DTT (10 mM), dNTP mix (1 mM each of dATP, dGTP, dTTP), [α-^33P]dCTP (3.3 μCi/μl) and Superscript II Reverse Transcriptase (10 units/μL). The samples were kept at 37° C. for 1.5 hr. Unincorporated nucleotides were removed by spinning the reaction mixture through a G-50 column. […] Probe quality was assessed by electrophoresis on a 10% denaturing polyacrylamide minigel. Denatured probes were added directly to the Microhyb solution and hybridized overnight at 42° C. Membranes were washed twice under each of the following conditions: (1) 2× SSC/0.1% SDS at room temperature, 5 min; (2) 0.2× SSC/0.1% SDS at room temperature, 5 min; (3) 0.2× SSC/0.1% SDS at 42° C., 15 min, (4) 0.1× SSC/0.1% SDS at 68° C., 15 min. Membranes were then rinsed briefly in 2× SSC at room temperature, covered with Saran wrap, and exposed to storage phoshpor screens. After three days, screens were scanned using a Storm phosphorimager (Molecular Dynamics). Images were analyzed using ImageQuant software (Molecular Dynamics).
We employed a rapid dot blot assay as a secondary screen for gene expression changes. We tested each of the unique clones against each of the three treatments. […] For these clones, the dot blot assay functioned not as a confirmation assay but as an initial screen for differential expression. Dot blots were prepared by robotically arraying subclone-derived PCR products in quadruplicate onto positively charged nylon membranes. […] In general, each dot consisted of over 80 ng of PCR product, as estimated by inspection of the PCR reactions run on agarose gels. This high quantity of DNA ensured that saturation of spots, with consequent loss of quantitation, would not occur. Spots of genomic DNA were included on each filter to allow normalization between control and treated sample intensities.

[2] = tested on: HepG2 cells; experiment: Annexin V assay for apoptosis; format: cell-based, human; conditions: 20 mM acetaminophen, 16 mM caffeine, 100 mM thioacetamide, by 24 hr
Description: Translocation of phosphatidyl serine to the cell membrane was measured by affinity binding to annexin V using the Apotest Biotin kit from NeXins Research B.V. (The Netherlands). HepG2 cells were cultured as above and plated into Cytostar-T scintillating microplates (Amersham) at 10^6 cells/well and grown for 3 days prior to treatment as above. Following treatment, 50 μl/well of 4 μg/ml annexin V-biotin in 2× Ca^2+ binding buffer was added. Wells with no annexin V-biotin were included as background controls. Following incubation for 20 min at room temperature, 50 μl/well of 0.5 μCi [^35S] streptavidin (Amersham) in 2× Ca^2+ binding buffer was added and incubated for 2 hrs at room temperature with gentle shaking. Plates were spun down at 1,100 rpm for 8 min and read on a Packard TopCount instrument (see e.g., Vermes et al., J. Immunol. Methods 185:81-93 (1995)).

[3] = tested on: HepG2 cells; experiment: Caspase-3 assay for apoptosis; format: cell-based, human; conditions: 100 mM thioacetamide, 24 hr
Description: Caspase-3 assay for apoptosis. Activation of caspase-3, an intracellular cysteine protease, was measured by cleavage of a caspase-specific peptide using the Caspase-3 Colorimetric Assay kit from R&D Systems. HepG2 cells were cultured and treated as above in T-75 tissue culture flasks. Following treatment, cells were scraped off and spun down. The assay was performed according to the kit instructions using 350 μl/flask of lysis buffer.

[4] = tested on: HepG2 cells; experiment: Cell morphology after toxicant treatment; conditions: 24 hr, 20 mM acetaminophen, 16 mM caffeine or 100 mM thioacetamide
Description: Depending on the desired exposure time, cell treatments began 3 or 4 days after splitting or plating. At this time, the cells were near or at confluency. […] Cell treatments were at 37° C.
The general strategy used for identifying toxicant-induced gene expression changes is outlined in Table 2.

[5] = 24 hr, 20 mM APAP, 16 mM CAF, 100 mM THI

CC(=O)Nc1ccc(O)cc1 [acetaminophen]
Number of 27 unconfirmed or non-matching clones showing an expression change ([1]; 24 hr): 7

CC(=N)S [thioacetamide]
Apoptosis, annexin V assay [2]: induces the greatest response | Caspase-3 activation [3]: significant activation | Cell morphology of treated cells [4]: somewhat dense and grainy | Fold change, down-regulation: EST (AA283846), clone 90-1 ([1]; 24 hr treatments): 7.7 fold | Fold change, down-regulation: EST (AA805555), clone 83 ([1]; 24 hr treatments): 11.1 fold | Fold change, down-regulation: EST (AI310515), clone 32-2 ([1]; 24 hr treatments): 9.1 fold | Fold change, down-regulation: Lactate dehydrogenase A, clone A24-1 ([1]; 24 hr treatments): 5.0 fold | Fold change, down-regulation: Pyruvate dehydrogenase E1-beta subunit, clone A123 ([1]; 24 hr treatments): 12.5 fold | Fold change, down-regulation: Transforming growth factor-beta type III receptor, clone A155-6 ([1]; 24 hr treatments): 3.0 fold | Fold change, up-regulation: Activating transcription factor 4, clone A108D ([1]; 24 hr treatments): 3.8 fold | Fold change, up-regulation: EST (N22016), clone AI24-6 ([1]; 24 hr treatments): up | Fold change, up-regulation: EST, similar to ubiquitin hydrolase, clone A130-3 ([1]; 24 hr treatments): up | Dot blot expression ratio (treated/control): 90-kDa heat-shock protein, clone 23 [1, 5]: 0.96 n | Dot blot expression ratio (treated/control): ABC transporter, clone 31-4 [1, 5]: 0.28 | Dot blot expression ratio (treated/control): AH antigen, clone A136-1 [1, 5]: 0.00 | Dot blot expression ratio (treated/control): Activating transcription factor 4, clone A108D [1, 5]: 3.77 | Dot blot expression ratio (treated/control): Apolipoprotein B-100, clone A124-1 [1, 5]: 0.76 | Dot blot expression ratio (treated/control): Atopy related autoantigen CALC, clone A182-1 [1, 5]: 0.66 | Dot blot expression ratio (treated/control): Centromere protein E (CENPE), clone A187-5 [1, 5]: 0.65 | Dot blot expression ratio (treated/control): Centromere protein F (400 kD) (CENPF kinetochore protein), clone A136 [1, 5]: 1.98 | Dot blot expression ratio (treated/control): Cu/Zn superoxide dismutase (SOD), clone A94-4 [1, 5]: 0.91 | Dot blot expression ratio (treated/control): DB1, clone A176-3 [1, 5]: 0.36 | Dot blot expression ratio (treated/control): DNA topoisomerase II binding protein, clone A172 [1, 5]: 0.49 | Dot blot expression ratio (treated/control): E1B 19K/Bcl-2-binding protein Nip3, clone 81-6 [1, 5]: 0.23 c | Dot blot expression ratio (treated/control): EST (AA283846), clone 90-1 [1, 5]: 0.13 c | Dot blot expression ratio (treated/control): EST (AA430551), clone A160-5 [1, 5]: 0.17 | Dot blot expression ratio (treated/control): EST (AA581887), clone 102-2 [1, 5]: 1.80 n | Dot blot expression ratio (treated/control): EST (AA581887), clone A102-1 [1, 5]: 1.78 n | Dot blot expression ratio (treated/control): EST (AA805555), clone 83 [1, 5]: 0.09 c | Dot blot expression ratio (treated/control): EST (AC007400), clone A95-1 [1, 5]: 1.07 | Dot blot expression ratio (treated/control): EST (AI049999), clone A104-5 [1, 5]: 0.89 | Dot blot expression ratio (treated/control): EST (AI310515), clone 32-2 [1, 5]: 0.11 c | Dot blot expression ratio (treated/control): EST (N22016), clone A124-6 [1, 5]: up | Dot blot expression ratio (treated/control): EST (N26592), clone 101 [1, 5]: 0.26 c | Dot blot expression ratio (treated/control): EST (N39662), clone A99-1 [1, 5]: 0.50 | Dot blot expression ratio (treated/control): EST (W44772), clone 87 [1, 5]: 1.11 n | Dot blot expression ratio (treated/control): EST, bithoraxoid-like protein, clone A183-1 [1, 5]: 0.42 | Dot blot expression ratio (treated/control): EST, similar to Long-chain acyl-coenzyme A synthetase, clone A105-7 [1, 5]: 0.90 | Dot blot expression ratio (treated/control): EST, similar to Ubiquinol cytochrome C reductase core protein 2, clone 93 [1, 5]: 0.38 c | Dot blot expression ratio (treated/control): EST, similar to arachidonate 15-lipoxygenase, clone 84 [1, 5]: 0.75 n | Dot blot expression ratio (treated/control): EST, similar to ubiquitin hydrolase, clone A130-3 [1, 5]: up | Dot blot expression ratio (treated/control): Esterase D/formylglutathione hydrolase, clone 24 [1, 5]: 0.31 c | Dot blot expression ratio (treated/control): G1 to S phasetransition 1 (GSPT1), clone 103-2 [1, 5]: 1.57 n | Dot blot expression ratio (treated/control): Glucose transporter pseudogene, clone 23-1 [1, 5]: 0.34 | Dot blot expression ratio (treated/control): High mobility group 2 protein (HMG-2), clone A111-8 [1, 5]: 1.12 | Dot blot expression ratio (treated/control): Human Alu-Sc subfamily consensus sequence, clone A96-4 [1, 5]: 0.84 | Dot blot expression ratio (treated/control): Human transposon-like element mRNA, clone A135-3 [1, 5]: 0.59 | Dot blot expression ratio (treated/control): Interleukin 6 signal transducer (gp130, oncostatin M receptor), clone 65-1 [1, 5]: 0.96 n | Dot blot expression ratio (treated/control): Ku autoimmune antigen, clone 27-2 [1, 5]: 0.47 c | Dot blot expression ratio (treated/control): Lactate dehydrogenase A, clone A24-1 [1, 5]: 0.20 c | Dot blot expression ratio (treated/control): Lipoprotein-associated coagulation inhibitor, clone A94-3 [1, 5]: 0.27 c | Dot blot expression ratio (treated/control): Liver microsomal UDP-glucuronosyltransferase (UDPGT), clone A128-7 [1, 5]: 0.70 | Dot blot expression ratio (treated/control): Lsm5 protein, clone A115-5 [1, 5]: 0.39 | Dot blot expression ratio (treated/control): MEGF9, clone 74 [1, 5]: 0.96 n | Dot blot expression ratio (treated/control): Myristoyl CoA:protein N-myristoyltransferase, clone 82 [1, 5]: 0.41 | Dot blot expression ratio (treated/control): NADH dehydrogenase subunit 2, clone A131-1 [1, 5]: 1.45 | Dot blot expression ratio (treated/control): Nucleosome assembly protein 1-1ike 1 (NAP1L1), clone 20-2 [1, 5]: 0.92 n | Dot blot expression ratio (treated/control): PPP1R5 gene, clone 30-5 [1, 5]: 0.17 c | Dot blot expression ratio (treated/control): T-complex polypeptide 1, clone 21-2 [1, 5]: 1.03 | Dot blot expression ratio (treated/control): Transforming growth factor-beta type III receptor, clone A155-6 [1, 5]: 0.33 | Dot blot expression ratio (treated/control): cAMP-responsive enhancer binding protein, alt. spliced (CREB327), clone 98 [1, 5]: 0.70 n | Dot blot expression ratio (treated/control): procollagen-lysine 2-oxoglutarate 5-dioxygenase 2, clone A185 [1, 5]: 0.36 | Dot blot expression ratio (treated/control): pyruvate dehydrogenase El-beta subunit, clone A123 [1, 5]: 0.08 | Number of 27 unconfirmed or non-matching clones showing an expression change ([1]; 24 hr): 9
